What was measured:
Format in all cases: binding
CCR1 = biological target: T1, CCR1 (Homo sapiens, UniProt P32246); assay: NanoBRET screen HiBiT-CCR1 in HEK293; settings: CCR1
T1 construct: purchased Promega (in-house HiBiT-GPCR construct library, NanoBRET)
T1 sequence (P32246 1-355): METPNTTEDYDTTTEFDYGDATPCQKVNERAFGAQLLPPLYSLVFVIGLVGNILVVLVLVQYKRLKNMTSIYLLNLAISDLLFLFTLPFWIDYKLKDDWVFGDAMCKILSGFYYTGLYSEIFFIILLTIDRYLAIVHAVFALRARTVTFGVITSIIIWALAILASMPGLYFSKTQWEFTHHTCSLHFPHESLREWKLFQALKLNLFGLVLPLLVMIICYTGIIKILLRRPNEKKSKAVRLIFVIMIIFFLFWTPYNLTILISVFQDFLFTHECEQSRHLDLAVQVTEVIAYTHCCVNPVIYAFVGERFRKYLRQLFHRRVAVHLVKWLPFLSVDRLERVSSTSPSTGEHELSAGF
Experimental: (§1) Each tracer candidate was screened across the entire library of HiBiT-GPCR constructs using NanoBRET as the detection modality. As depicted in Figure 4A, the specificity of interactions was evaluated through decrease in BRET due to competitive displacement of a bound tracer by excess parental compound. Each tracer was analyzed for binding to each HiBiT-GPCR fusion in the absence and in the presence of competing parental compound. Briefly, HEK293 cells were transfected with HiBiT-GPCR constructs diluted into promoterless DNA to reduce expression and maximize translocation to the cell surface. Each tracer candidate was then screened at concentrations of 1 μM and 0.1 μM across cells expressing these fusions. Cells were treated for 1.5 h with tracer either alone or in the presence of 20 μM competing parental compound (i.e., control). BRET was measured upon addition of purified LgBiT and subsequent complementation with HiBiT genetically fused to a GPCR. The specificity of interactions was assessed through a decrease in BRET signal due to competitive displacement of the bound tracer. To further gauge the robustness of these interactions, the fold response over the control (i.e., BRETtracer/BRETcontrol) was calculated. We chose a 1.5-fold response, which translates to ≥7-fold signal over noise as the minimal threshold required to score an interaction as positive. […]. Below we highlight the screening results obtained for our exemplary fluorescent tracers based on Clozapine, Amitriptyline and AZD1283.
(§2) HiBiT-GPCR DNA constructs were diluted in 10 mM Tris pH 8 to a final concentration of 0.01 μg/μL, arrayed in 96-well plates and stored at −20 °C. For transfection, HEK293 cells were suspended in Opti-MEM (without phenol red) supplemented with 2% fetal bovine serum (Seradigm) and 100 units/mL penicillin–streptomycin (Gibco) at a final concentration of 220,000 cells/mL and dispensed into white 96-well plates at 90 μL/well. Subsequent transfections and screens were carried using an Agilent Bravo Automated Liquid Handling Platform. First, the 96-well HiBiT DNA arrays were diluted 25-fold in Opti-MEM (without serum or phenol red) to a final concentration of 0.0004 μg/μL and 20 μL of the diluted DNAs were transferred into new 96-well plates. Next, promoterless carrier DNA (1 μg/μL) was diluted 25-fold (0.04 μg/μL) and then dispensed into the diluted arrays at 20 μL/well. Following brief mixing, Viafect transfection reagent (Promega) diluted 16-fold into Opti-MEM was dispensed into the plates at 40 μL/well. After mixing by pipetting, plates were incubated for 10 min on the pipetting station deck. The DNA-transfection reagent complexes were then added to plates containing cells. To facilitate the screen, 10 μL of DNA-transfection reagent complexes were added in duplicates to the top 4 and bottom 4 rows, resulting in two identical 48-well arrays per plate. Plates with transfected cells were incubated for 18–20 h at 37 °C/5% CO2. A screen of each tracer across the entire library using two different concentrations requires duplicate plates of transfected cells. Depending on the number of tracers being screened, transfections can be scaled up using the same ratios. The next day, for each tracer, four 20× screening solutions in tracer dilution buffer (Promega) were prepared: two duplicates at final concentration of 20 μM and two duplicates at a final concentration of 2 μM. A competing unmodified compound was added to one of each duplicate at a final concentration of 400 μM. The four resulting solutions were diluted 4-fold in Opti-MEM without serum or phenol red to generate 5× solutions (5 µM and 0.5 µM tracer +/− 100 μM competing compound). To screen the library, a BioTek MultiFlo FX liquid dispenser was used to dispense 22.5 µL of tracer solution to the top 4 rows and 22.5 µL tracer + competing compound solution to the 4 bottom rows. Plates were briefly mixed on an orbital shaker and incubated for 1.5 h at room temperature. […]

FZD8 = biological target: T2, FZD8 (Homo sapiens, UniProt Q9H461); assay: NanoBRET screen HiBiT-FZD8 in HEK293; settings: FZD8
T2 construct: purchased Promega (in-house HiBiT-GPCR construct library, NanoBRET)
Experimental: as §1, §2

HRH4 = biological target: T3, HRH4 (Homo sapiens, UniProt Q9H3N8); assay: NanoBRET screen HiBiT-HRH4 in HEK293; settings: HRH4
T3 construct: purchased Promega (in-house HiBiT-GPCR construct library, NanoBRET)
Experimental: as §1, §2

P2RY1 = biological target: T4, P2RY1 (Homo sapiens, UniProt P47900); assay: NanoBRET screen HiBiT-P2RY1 in HEK293; settings: P2RY1
T4 construct: purchased Promega (in-house HiBiT-GPCR construct library, NanoBRET)
Experimental: as §1, §2

MCHR1 = biological target: T5, MCHR1 (Homo sapiens, UniProt Q99705); assay: NanoBRET screen HiBiT-MCHR1 in HEK293; settings: MCHR1
T5 construct: purchased Promega (in-house HiBiT-GPCR construct library, NanoBRET)
Experimental: as §1, §2

NPY1R = biological target: T6, NPY1R (Homo sapiens, UniProt P25929); assay: NanoBRET screen HiBiT-NPY1R in HEK293; settings: NPY1R
T6 construct: purchased Promega (in-house HiBiT-GPCR construct library, NanoBRET)
T6 sequence (P25929 1-384): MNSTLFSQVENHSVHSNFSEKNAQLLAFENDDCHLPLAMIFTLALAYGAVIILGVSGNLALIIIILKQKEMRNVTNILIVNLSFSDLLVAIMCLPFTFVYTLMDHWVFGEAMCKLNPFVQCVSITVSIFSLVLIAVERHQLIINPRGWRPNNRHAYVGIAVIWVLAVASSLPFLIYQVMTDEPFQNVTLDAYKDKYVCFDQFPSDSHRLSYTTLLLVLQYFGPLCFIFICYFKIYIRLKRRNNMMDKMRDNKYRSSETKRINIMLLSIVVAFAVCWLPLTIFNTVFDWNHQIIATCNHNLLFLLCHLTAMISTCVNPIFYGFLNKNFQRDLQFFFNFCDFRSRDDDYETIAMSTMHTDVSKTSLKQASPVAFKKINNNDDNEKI
Experimental: as §1, §2

GRM5 = biological target: T7, GRM5 (Homo sapiens, UniProt P41594); assay: NanoBRET screen HiBiT-GRM5 in HEK293; settings: GRM5
T7 construct: purchased Promega (in-house HiBiT-GPCR construct library, NanoBRET)
Experimental: as §1, §2

T5 sequence (Q99705 whole entry): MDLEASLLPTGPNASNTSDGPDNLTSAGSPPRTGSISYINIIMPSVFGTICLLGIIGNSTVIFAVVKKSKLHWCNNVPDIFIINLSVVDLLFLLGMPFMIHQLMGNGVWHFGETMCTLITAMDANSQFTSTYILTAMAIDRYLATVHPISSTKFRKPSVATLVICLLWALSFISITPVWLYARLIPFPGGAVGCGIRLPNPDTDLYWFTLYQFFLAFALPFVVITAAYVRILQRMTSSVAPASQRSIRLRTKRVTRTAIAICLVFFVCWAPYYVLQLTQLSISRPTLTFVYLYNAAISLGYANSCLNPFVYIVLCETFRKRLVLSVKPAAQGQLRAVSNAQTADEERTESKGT
T3 sequence (Q9H3N8 whole entry): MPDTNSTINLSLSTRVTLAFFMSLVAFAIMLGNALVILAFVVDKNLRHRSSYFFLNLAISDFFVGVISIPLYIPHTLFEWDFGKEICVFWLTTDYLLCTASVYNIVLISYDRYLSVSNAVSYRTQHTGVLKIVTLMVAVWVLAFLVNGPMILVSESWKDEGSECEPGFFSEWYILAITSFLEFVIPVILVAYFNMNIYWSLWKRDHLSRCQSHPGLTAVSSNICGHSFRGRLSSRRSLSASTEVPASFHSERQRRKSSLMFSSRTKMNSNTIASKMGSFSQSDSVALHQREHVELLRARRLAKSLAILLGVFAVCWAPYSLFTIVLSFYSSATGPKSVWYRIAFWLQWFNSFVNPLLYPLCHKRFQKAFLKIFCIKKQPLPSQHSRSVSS
T7 sequence (P41594 21-1212): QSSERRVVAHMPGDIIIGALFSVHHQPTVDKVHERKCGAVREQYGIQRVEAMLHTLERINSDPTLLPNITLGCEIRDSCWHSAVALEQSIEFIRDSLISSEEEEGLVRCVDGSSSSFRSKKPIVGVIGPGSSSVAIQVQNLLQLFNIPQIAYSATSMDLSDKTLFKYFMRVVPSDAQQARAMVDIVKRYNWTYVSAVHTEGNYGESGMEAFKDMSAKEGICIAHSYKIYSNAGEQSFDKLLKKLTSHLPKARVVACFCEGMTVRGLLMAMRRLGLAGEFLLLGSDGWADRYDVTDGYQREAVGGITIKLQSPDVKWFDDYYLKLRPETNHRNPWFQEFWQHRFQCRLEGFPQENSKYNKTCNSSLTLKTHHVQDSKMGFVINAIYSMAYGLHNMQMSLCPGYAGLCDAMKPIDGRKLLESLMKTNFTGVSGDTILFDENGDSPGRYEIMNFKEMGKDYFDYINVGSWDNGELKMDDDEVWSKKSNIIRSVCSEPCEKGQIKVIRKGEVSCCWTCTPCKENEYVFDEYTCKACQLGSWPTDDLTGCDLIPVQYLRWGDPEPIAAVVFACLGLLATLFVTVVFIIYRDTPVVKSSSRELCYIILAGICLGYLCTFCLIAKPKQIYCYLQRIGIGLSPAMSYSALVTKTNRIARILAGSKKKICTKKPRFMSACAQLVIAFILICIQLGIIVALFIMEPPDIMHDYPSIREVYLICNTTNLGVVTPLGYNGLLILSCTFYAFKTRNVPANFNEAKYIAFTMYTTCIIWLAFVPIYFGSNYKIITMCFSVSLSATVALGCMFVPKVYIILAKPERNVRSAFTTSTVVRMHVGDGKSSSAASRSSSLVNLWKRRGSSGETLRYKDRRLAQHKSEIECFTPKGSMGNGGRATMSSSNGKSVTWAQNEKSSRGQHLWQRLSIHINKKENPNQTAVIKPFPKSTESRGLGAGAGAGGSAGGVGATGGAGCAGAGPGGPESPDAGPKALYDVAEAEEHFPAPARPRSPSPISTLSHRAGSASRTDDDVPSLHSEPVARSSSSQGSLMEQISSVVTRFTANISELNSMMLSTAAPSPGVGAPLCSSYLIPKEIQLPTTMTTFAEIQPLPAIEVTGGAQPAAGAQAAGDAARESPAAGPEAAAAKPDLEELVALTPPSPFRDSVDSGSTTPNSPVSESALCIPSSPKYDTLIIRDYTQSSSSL
T2 sequence (Q9H461 28-694): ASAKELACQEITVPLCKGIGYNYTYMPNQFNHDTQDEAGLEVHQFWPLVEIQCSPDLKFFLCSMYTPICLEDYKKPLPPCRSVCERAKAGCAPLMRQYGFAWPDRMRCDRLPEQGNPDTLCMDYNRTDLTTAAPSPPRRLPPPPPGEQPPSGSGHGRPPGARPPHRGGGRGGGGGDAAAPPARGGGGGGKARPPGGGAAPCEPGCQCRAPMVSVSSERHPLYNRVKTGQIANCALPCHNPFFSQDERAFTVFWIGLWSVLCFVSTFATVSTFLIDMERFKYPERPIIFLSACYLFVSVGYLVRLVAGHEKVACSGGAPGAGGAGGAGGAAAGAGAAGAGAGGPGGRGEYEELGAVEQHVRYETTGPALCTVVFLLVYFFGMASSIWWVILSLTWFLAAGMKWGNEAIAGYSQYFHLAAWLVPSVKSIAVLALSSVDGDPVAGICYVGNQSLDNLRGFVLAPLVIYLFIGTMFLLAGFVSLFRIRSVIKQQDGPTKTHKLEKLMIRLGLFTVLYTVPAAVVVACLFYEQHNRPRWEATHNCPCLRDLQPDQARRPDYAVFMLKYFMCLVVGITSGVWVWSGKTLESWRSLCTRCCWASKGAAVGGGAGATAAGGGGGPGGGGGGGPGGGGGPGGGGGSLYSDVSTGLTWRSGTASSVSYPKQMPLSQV
T4 sequence (P47900 whole entry): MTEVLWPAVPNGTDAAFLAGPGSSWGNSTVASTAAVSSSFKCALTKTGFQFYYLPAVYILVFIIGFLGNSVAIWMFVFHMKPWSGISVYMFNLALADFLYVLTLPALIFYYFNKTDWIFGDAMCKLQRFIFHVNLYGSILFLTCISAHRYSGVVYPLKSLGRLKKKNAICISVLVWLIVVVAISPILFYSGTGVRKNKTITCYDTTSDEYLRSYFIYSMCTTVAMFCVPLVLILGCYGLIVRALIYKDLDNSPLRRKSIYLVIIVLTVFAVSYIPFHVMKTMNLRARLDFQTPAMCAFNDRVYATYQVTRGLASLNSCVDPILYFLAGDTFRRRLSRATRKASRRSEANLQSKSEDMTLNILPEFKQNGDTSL

SMILES | NanoBRET Fold Response (CCR1; tracer 0.1μM) | NanoBRET Fold Response (CCR1; tracer 1μM) | NanoBRET Fold Response (FZD8; tracer 0.1μM) | NanoBRET Fold Response (FZD8; tracer 1μM) | NanoBRET Fold Response (HRH4; tracer 0.1μM) | NanoBRET Fold Response (P2RY1; tracer 0.1μM) | NanoBRET Fold Response (MCHR1; tracer 1μM) | NanoBRET Fold Response (NPY1R; tracer 0.1μM) | NanoBRET Fold Response (NPY1R; tracer 1μM) | NanoBRET Fold Response (GRM5; tracer 0.1μM) | NanoBRET Fold Response (GRM5; tracer 1μM) | NanoBRET Fold Response (HRH4; tracer 1μM) | NanoBRET Fold Response (P2RY1; tracer 1μM) | NanoBRET Fold Response (MCHR1; tracer 0.1μM)
COc1ccccc1N1CCN(CCCCN2C(=O)c3ccc(CNC(=O)CCOCCOCCOCCOCCNC(=O)CCc4ccc5n4[B-](F)(F)[N+]4=C(c6ccc[nH]6)C=CC4=C5)cc3C2=O)CC1 [NAN-190-2-NB590] | 1.01 | 1.04 | 0.95 | 1.03 | 0.96 | 0.97 | 0.93 | 1.02 | 0.94 | 0.96 | 1.04 |  |  | 
COc1ccccc1N1CCN(CCCCN2C(=O)c3ccc(CNC(=O)CCOCCNC(=O)c4ccc(CNC(=O)CCc5ccc6n5[B-](F)(F)[N+]5=C(c7ccc[nH]7)C=CC5=C6)cc4)cc3C2=O)CC1 [NAN-190-3-NB590] | 1.04 | 0.89 | 1.20 | 0.87 | 0.93 | 0.97 | 0.86 | 0.88 | 0.94 | 1.05 | 1.15 | 0.93 | 1.00 | 1.20
O=C(CCc1ccc2n1[B-](F)(F)[N+]1=C(c3ccc[nH]3)C=CC1=C2)NCc1ccc(C(=O)NCCOCCC(=O)N[C@@H]2CC[C@@]3(O)[C@H]4Cc5ccc(O)c6c5[C@@]3(CCN4CC3CC3)[C@H]2O6)cc1 [Naltrexone-3-NB590] | 1.03 | 0.66 | 0.90 | 0.78 | 0.75 | 0.86 | 0.92 | 0.93 | 1.02 | 1.25 | 1.14 | 0.91 | 0.95 | 1.07
Cc1cc2c(s1)Nc1ccccc1N=C2N1CCN(CCCNC(=O)CCOCCOCCOCCOCCNC(=O)CCc2ccc3n2[B-](F)(F)[N+]2=C(c4ccc[nH]4)C=CC2=C3)CC1 [Olanzapine-a-2-NB590] | 1.02 | 0.98 | 0.95 | 0.94 | 1.01 | 0.97 | 1.13 | 1.02 | 1.02 | 0.95 | 0.97 | 0.94 | 0.95 | 1.04
